# Patent US20160213742A1, “COMPOSITIONS AND METHODS FOR THE TREATMENT OF FUNGAL INFECTIONS” (priority 2013, published 2016)
# “Also recorded” adds a separate entry of the source.
# Key:
# Format in all cases: cell-based
# [1] = test system: Neutrophils purified from human peripheral blood; test: Human Neutrophil Transwell Migration Assay; settings: 37° C., 45 minutes, % of the maximum migration possible
# Outline: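 Neutrophils (~50,000–100,000) were placed above 5-micron transwell inserts with test compound in the lower chamber and allowed to migrate 45 min at 37° C. Migrated cells were quantified by ATP luminescence; medium-only background was subtracted and values expressed as % of cells added directly to the bottom well.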
# [2] = test system: Aspergillus fumigatus strain AF293; test: Microfluidic Aspergillus fumigatus Killing Assay with human neutrophils; settings: for percent hyphal growth compared to remaining conidia (FIG. 2): with added neutrophils (NFs), Compound 1, Compound 11, caspofungin acetate 10 nM, fMLP 100 nM, hyphae by 18 hours; for timecourse of A. fumigatus (Af) growth in FCCs (FIG. 4): in presence of PMNs, three healthy blood donors, t=0, 8, and 16 hours
# Description: Microfluidic devices used to measure leukocyte migration in response to Aspergillus fumigatus with or without drug (Compound 1 or Compound 11), antifungal control (caspofungin acetate) and/or chemoattractant (fMLP) were manufactured using known microfabrication techniques. Two layers of photoresist (SU8; Microchem), the first one 10 μm thin (corresponding to the migration channels) and the second one 70 μm thick, corresponding to the focal chemotactic chambers (FCCs) were patterned on one silicon wafer sequentially using two photolithographic masks and processing cycles according to the instructions from the manufacturer. The wafer with patterned photoresist was used as a mold to produce polydimethylsiloxane (PDMS) (Fisher Scientific) devices, which were then bonded to the base of glass-bottom 12- or 24-well plates, using an oxygen plasma machine (Nordson-March).
# Aspergillus fumigatus strain AF293 expressing either cytosolic red fluorescent protein (RFP) or green fluorescent protein (GFP) was grown on Sabouraud dextrose agar plates supplemented with 100 μg/mL ampicillin at 30° C. for 3-4 days. Conidia were harvested by gentle scraping followed by washing in ice-cold phosphate buffered saline (PBS) three times. Conidia were immediately used or stored at 4° C. for use within one week.
# De-identified, fresh human blood samples from healthy volunteers, aged 18 years and older, who were not receiving immunosuppressants, were purchased from Research Blood Components, LLC. Peripheral blood was drawn in tubes containing a final concentration of 5 mM EDTA (Vacutainer; Becton Dickinson) and processed within 2 h of blood collection. Using a sterile technique, neutrophils were isolated from whole blood using HetaSep followed by the EasySep Human Neutrophil Enrichment Kit ([…] Technologies) following the manufacturer's protocol. The purity of neutrophils was assessed to be >98% using the Sysmex KX-21N Hematology Analyzer (Sysmex America, Inc.). White blood cells were isolated using Hetasep followed by a 5 min spin down and wash with 1×PBS. White blood cells were stained with Hoechst (32.4 μM) (Sigma) following the manufacture's protocols. The final aliquots of white blood cells were resuspended in RPMI plus 10% fetal bovine serum (FBS−stock 50 mL FBS/450 mL RPMI) (Sigma-Aldrich) at a concentration of 20,000 cells/2 μL and kept at 37° C. Cells were then immediately introduced into the microfluidic device for the chemotaxis and Aspergillus fumigatus killing assay. All experiments were repeated at least three times with neutrophils or white blood cells from three different healthy donors.
# Immediately after bonding to the well plate, donut-shaped devices were filled with Aspergillus fumigatus conidia at a concentration of 10^6 cells/mL with or without either Compound 1 or Compound 11 [10 nM], caspofungin acetate [10 nM] and/or a solution of the chemoattractant N-formyl-methionyl-leucyl-phenylalanine (fMLP) [100 nM](Sigma-Aldrich, St. Louis, Mo.). The device was then placed in a vacuum for 15 min. The solution filled all of the FCCs as the air was displaced. The devices were then vigorously washed five times with 1×PBS to remove any residual Aspergillus fumigatus conidia, drug or chemoattractant that was outside of the FCCs. The device was then submerged in 0.5 mL of cell media. Neutrophils or white blood cells (20,000 cells/2 μL) were then pipetted into the cell loading chamber (CLC) using a gel-loading pipette tip. Neutrophil migration into the migration channel toward the FCC started immediately and was recorded using time-lapse imaging on a fully automated Nikon TiE microscope (10× magnification) with biochamber heated to 37° C. with 5% carbon dioxide gas. Image analysis of cell migration counts and fungi growth was analyzed by hand using Image J software.
# Image analysis of cell migration counts and fungi growth was analyzed by hand using Image J software.
# [3] = test system: C. glabrata ATCC 90030; settings: C. glabrata ATCC 90030; read at 50% growth inhibition for echinocandins (24 h), 100% for amphotericin B (48 h)
# Description: (§1) MIC and MEC assays were run as described in Example 31 with the following exceptions. Starting solutions of all antifungal agents were prepared in 100% DMSO. Stock concentrations were made at 50× the highest final assay concentration and serially diluted 2-fold, 16 times in a 96-well PCR plate (VWR 83007-374). Candida and Aspergillus suspensions from Sabouraud dextrose agar plate cultures were prepared in 0.85% saline at 0.5 McFarland standard (˜0.1 OD530 nm). Candida suspensions were diluted 1:500 in RPMI (MP Biomedicals, cat no. 1060124; buffered with MOPS and adjusted with NaOH to pH 7.0) to a concentration of ˜0.5-2.5×10^3 CFU/mL and Aspergillus suspensions were diluted 1:50 in RPMI to 0.4-5×10^4 CFU/mL final concentration. 98 μL of each cell suspension in RPMI were added to test wells in a 96-well assay plate (Costar cat. no. 3370). A Beckman Multimek 96 liquid handling robot was used to dispense 2 μL of each 50× stock compound into the plate containing 98 μL of each strain in RPMI (2% final solvent concentration). Plates were shaken then incubated at 35° C. for 24-48 h prior to reading. MIC values were read visually at 50% growth inhibition for echinocandins (24 h) and at 100% growth inhibition for amphotericin B (48 h). MEC values (24 h) were read with the aid of a microscope at the lowest echinocandin concentration where rounded/compact hyphal morphology was observed.
# [4] = test system: C. krusei ATCC 14243; settings: C. krusei ATCC 14243; read at 50% growth inhibition for echinocandins (24 h), 100% for amphotericin B (48 h)
# Description: as §1
# [5] = test system: C. tropicalis ATCC 750; settings: C. tropicalis ATCC 750; read at 50% growth inhibition for echinocandins (24 h), 100% for amphotericin B (48 h)
# Description: as §1
Compound,% Neutrophil Migration ([1]; conc 0.001 μg/mL),% Neutrophil Migration ([1]; conc 0.01 μg/mL),% Neutrophil Migration ([1]; conc 0.1 μg/mL),% Neutrophil Migration ([1]; conc 1 μg/mL),% Neutrophil Migration ([1]; conc 10 μg/mL),percent hyphal growth compared to remaining conidia (FIG. 2) [2],timecourse of A. fumigatus (Af) growth in FCCs (FIG. 4) [2],MIC [3],MIC [4],MIC [5]
CC[C@H](C)C[C@H](C)CCCCCCCCC(=O)N[C@H]1C[C@@H](O)[C@@H](NCCN)NC(=O)[C@@H]2[C@@H](O)CCN2C(=O)[C@H]([C@H](O)CCNC(=O)[C@H](Cc2ccccc2)NC(=O)[C@H](CC(C)C)NC(=O)[C@H](CCSC)NC=O)NC(=O)[C@H]([C@H](O)[C@@H](O)c2ccc(O)cc2)NC(=O)[C@@H]2C[C@@H](O)CN2C(=O)[C@H]([C@@H](C)O)NC1=O [Compound 1],−4.7%,67.9%,70.7%,−10.6%,−11.2%,inhibition of Aspergillus fumigatus hyphal growth; also recorded: able to suppress hyphal growth,,,,
CC[C@H](C)C[C@H](C)CCCCCCCCC(=O)N[C@H]1C[C@@H](O)[C@@H](OCCN)NC(=O)[C@@H]2[C@@H](O)CCN2C(=O)[C@H]([C@H](O)CCNC(=O)[C@H](Cc2ccccc2)NC(=O)[C@H](CC(C)C)NC(=O)[C@H](CCSC)NC=O)NC(=O)[C@H]([C@H](O)[C@@H](O)c2ccc(O)cc2)NC(=O)[C@@H]2C[C@@H](O)CN2C(=O)[C@H]([C@@H](C)O)NC1=O [Compound 11],−4.7%,80.3%,28.3%,−8.0%,−10.9%,inhibition of Aspergillus fumigatus hyphal growth; also recorded: able to suppress hyphal growth,inhibition of growth of Af,,,
caspofungin acetate [reference compound],,,,,,,growth of Af,0.25 µg/mL,0.25 µg/mL,0.125 µg/mL
